Measured values from patent publication US12290526B2 (priority 2018, dated 2025).

Key:
[1] = system: gout induced by intra-articular uric acid at 20% in rats; assay: PIFIR model (pain-induced functional impairment, uric acid 20%), analgesic activity after topical administration; format: in vivo, Female Wistar rats; conditions: for ability to walk and visible adverse effects: doses used (3.2-31.6 mg/Kg topical), observation period of 5 h
From the text: Female Wistar rats [Crl:(WI)BR] were employed with a weight of between 180 and 200 g. All the experimental procedures followed the recommendations of the committee for Research and Ethical Issues of the International Association for the Study of Pain and the Guidelines on Ethical Standards for Investigations of Experiment Pain in Animals. The number of animals for experimentation was kept to a minimum: 6 rats per experimental point. The animals were kept in a room with alternating dark/light cycles.
Twelve hours before the experiments, the fur that covers the rats' major muscle group that covers the femur (4 cm×4 cm) on the outer side of the hind right paw was very carefully clipped with some scissors, leaving the fur cut to a maximum length of 2 mm and taking care not to injure the rats' skin. Food was also removed at this moment, leaving them only free access to water. All the experiments were performed during the light phase, with the animals only being used once.
The analgesic effects are assessed employing the PIFIR model, in other words, the rats were anesthetized in a glass desiccator, saturated with ether vapor. The gout was induced by applying an intra-articular injection (i.a.) of 0.05 ml of uric acid suspended in mineral oil in the right hind member, exactly in the femur-tibia-kneecap joint. A 1 mL glass syringe with a 4-mm-long No. 22 needle is used for the intra-articular injection. Immediately afterwards, an electrode is attached to each hind paw in the middle of the plantar calluses. The rats were left to recover from the anesthesia and placed in a 30-cm-diameter rotary stainless-steel cylinder. The cylinder was turned at 4 r.p.m., forcing the rats to walk for 3 min every half hour, for a total of 5 hours. The variable measured was the contact time of each one of the rats' hind paws in the cylinder. When the electrode makes contact with the cylinder a circuit is closed and the ratio between the contact time of the injured paw in respect of the uninjured one was recorded on a computer.
The temporary courses of each treatment for 5 continuous hours were determined, employing an “n” of 6 rats per treatment. For the purpose of this study, inducing harm in the experimental animals was unavoidable. However, care was taken to avoid causing unnecessary suffering to the animals. At the end of the experimental determinations, the rats were immediately sacrificed.
From the aforementioned experimental model, the results obtained from the analgesic assessment of the combination are expressed as a Functionality Index percentage (FI %). This FI % is the ratio obtained by dividing the contact time of the limb with uric acid by the contact time of the limb against of the same rats, and multiplying the result by 100. The temporary course (TC) curves are built by plotting FI % or Dysfunction against time (h). The analgesic or antinociceptive effect was estimated as the recuperation of FI %. […] All the values plotted in the figures correspond to the mean±error standard for 6 animals.

[2] = cited from earlier work
[3] = cited from earlier work; remark: listed apart in the source
[4] = 31.6 mg/Kg topical administration

O=C(O)COC(=O)Cc1ccccc1Nc1c(Cl)cccc1Cl [aceclofenac, (2-{2-[(2,6-Dichlorophenyl)amino]phenyl}acetoxy) acetic acid]
maximum effect (Emax), recovery of Functionality Index percentage (FI %) ([1]; 31.6 mg/Kg topical administration, rats, uric acid 20%, 5 h observation, mean ± standard error, n=6): 42.0±6.9%
analgesic effects in temporary courses (in words) ([1]; 3.16, 5.62, 10.0, 17.78 and 31.62 mg/Kg topical administration): does show analgesic effects
ability to walk and visible adverse effects [1]: did not affect the ability of the rats to walk during the observation period or cause any visible adverse effect
time over which the concentration in the top skin layers slowly declines ([2]; after the drug product is removed from the skin): more than 16 hours
amount of aceclofenac absorbed, of the total dose applied ([2]; applied to the skin): 13%
amount retained on the top layers of skin, of the dose applied ([2]; applied to the skin): 6 to 9%

C[C@H]1C[C@H]2[C@@H]3CCC4=CC(=O)C=C[C@]4(C)[C@@]3(F)[C@@H](O)C[C@]2(C)[C@@]1(O)C(=O)CO [betamethasone, (11ß,16ß)-9-fluoro-11,17,21-trihydroxy-16-methylpregna-1,4-diene-3,20-dione]
analgesic effects in temporary course (in words) [1, 4]: modest analgesic effects
time point of the maximum effect [1, 4]: 3.5 h
analgesic effects in temporary courses (in words) ([1]; 3.16, 10.0 and 17.8 mg/Kg topical administration): does not generate analgesic effects
ability to walk and visible adverse effects [1]: did not affect the ability of the rats to walk during the observation period or cause any visible adverse effect
solubility in water [3]: insoluble in water
